Target: T1, Type-1 angiotensin II receptor (Oryctolagus cuniculus) (UniProt P34976)
T1 sequence (whole entry): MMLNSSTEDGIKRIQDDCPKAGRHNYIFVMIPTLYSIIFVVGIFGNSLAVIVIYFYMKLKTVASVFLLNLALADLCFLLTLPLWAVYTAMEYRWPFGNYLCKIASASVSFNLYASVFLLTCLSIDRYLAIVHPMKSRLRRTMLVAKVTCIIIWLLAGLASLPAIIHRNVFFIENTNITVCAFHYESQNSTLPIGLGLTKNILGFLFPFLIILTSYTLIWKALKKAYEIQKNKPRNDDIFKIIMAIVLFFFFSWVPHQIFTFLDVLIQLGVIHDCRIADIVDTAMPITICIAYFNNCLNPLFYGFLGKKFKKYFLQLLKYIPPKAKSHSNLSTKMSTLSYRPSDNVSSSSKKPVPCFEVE
Experiment: Angiotensin II receptor, type 1 antagonist activity in rabbit isolated thoracic aorta
Type: functional, tissue-based

pKB | SMILES
8.4 | CCCCc1nc(Cl)c(CO)n1Cc1ccc(-c2ccccc2-c2nnn[nH]2)cc1
10.6 | CCCCc1nc(Cl)c(C(=O)O)n1Cc1ccc(-c2ccccc2-c2nn[nH]n2)cc1
6.9 | CCCCc1nc(Cl)c(CO)n1Cc1ccc(-c2ccccc2C(=O)O)cc1
